Laboratory results published in PubChem BioAssay (NCI).
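Step 1: Grow cells in 96-well plates. Step 2: Expose to compound for 48 hours at 5 concentrations. Step 3: Interpolate endpoints linearly; if unreached, use highest concentration. At the TGI there is no net growth.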

Legend:
Test in all cases: growth of human tumour cells (NCI), 48 h
SK-MEL-28 melanoma = test system: SK-MEL-28 melanoma
NCI/ADR-RES ovarian = test system: NCI/ADR-RES ovarian
MDA-MB-231 breast = test system: MDA-MB-231 breast
M14 melanoma = test system: M14 melanoma
SK-OV-3 ovarian = test system: SK-OV-3 ovarian
PC-3 prostate = test system: PC-3 prostate
K-562 leukemia = test system: K-562 leukemia
MALME-3M melanoma = test system: MALME-3M melanoma
HS 578T breast = test system: HS 578T breast
OVCAR-8 ovarian = test system: OVCAR-8 ovarian
SF-268 CNS = test system: SF-268 CNS
786-0 renal = test system: 786-0 renal
U251 CNS = test system: U251 CNS
HT29 colon = test system: HT29 colon
NCI-H522 lung = test system: NCI-H522 lung
T-47D breast = test system: T-47D breast
OVCAR-3 ovarian = test system: OVCAR-3 ovarian
MCF7 breast = test system: MCF7 breast
MDA-N = test system: MDA-N
HCC-2998 colon = test system: HCC-2998 colon

| SMILES | TGI (SK-MEL-28 melanoma) [µM] | TGI (NCI/ADR-RES ovarian) [µM] | TGI (MDA-MB-231 breast) [µM] | TGI (M14 melanoma) [µM] | TGI (SK-OV-3 ovarian) [µM] | TGI (PC-3 prostate) [µM] | TGI (K-562 leukemia) [µM] | TGI (MALME-3M melanoma) [µM] | TGI (HS 578T breast) [µM] | TGI (OVCAR-8 ovarian) [µM] | TGI (SF-268 CNS) [µM] | TGI (786-0 renal) [µM] | TGI (U251 CNS) [µM] | TGI (HT29 colon) [µM] | TGI (NCI-H522 lung) [µM] | TGI (T-47D breast) [µM] | TGI (OVCAR-3 ovarian) [µM] | TGI (MCF7 breast) [µM] | TGI (MDA-N) [µM] | TGI (HCC-2998 colon) [µM] |
| --- | --- | --- | --- | --- | --- | --- | --- | --- | --- | --- | --- | --- | --- | --- | --- | --- | --- | --- | --- | --- |
| O=C(Nc1ccccc1)c1cc2ccccc2c(N=Nc2ccc([N+](=O)[O-])cc2)c1O | > 100 | > 100 | > 100 | > 100 | > 100 | > 100 | > 100 | > 100 | > 100 | > 100 | > 100 | > 100 | > 100 | > 100 | > 100 | > 100 | > 100 | – | – | – |
| CN(C)CC1CN=C(N)O1 (stereo not drawn) | > 100 | > 100 | > 100 | > 100 | > 100 | > 100 | > 100 | > 100 | – | – | > 100 | > 100 | > 100 | – | > 100 | – | > 100 | > 100 | > 100 | > 100 |
| COc1ccc(C2SCC(=O)N2NC(=O)c2ccncc2)cc1F (stereo not drawn) | > 100 | – | – | > 100 | > 100 | – | – | > 100 | – | – | > 100 | – | > 100 | > 100 | > 100 | – | – | – | – | > 100 |
| Cn1c(=O)n2n(c1=O)C(S(=O)(=O)c1ccccc1)C2 (stereo not drawn) | > 100 | > 100 | > 100 | > 100 | > 100 | > 100 | > 100 | > 100 | > 100 | > 100 | > 100 | > 100 | > 100 | > 100 | > 100 | – | > 100 | > 100 | > 100 | > 100 |
| Nc1c2ccccc2nc2ccc3c(=O)cc(-c4ccccc4)oc3c12 | 3.21 | – | 2.52 | 2.67 | 3.48 | 2.7 | 0.326 | 3.23 | – | 1.89 | – | 0.348 | 1.46 | 1.86 | – | – | 2.85 | 2.05 | 2.13 | 1.9 |
| CC12CCC(C(Nc3cc(C(F)(F)F)cc(C(F)(F)F)c3)C1=O)C2(C)C (stereo not drawn) | > 100 | > 100 | > 100 | > 100 | > 100 | > 100 | > 100 | > 100 | – | > 100 | > 100 | > 100 | > 100 | > 100 | – | > 100 | > 100 | > 100 | – | > 100 |
| COc1cccc(/C=C2\CCCc3ccccc3C2=O)c1 | 41.1 | 53.3 | 32.5 | 25.6 | 79.3 | 38.6 | 48.2 | 43 | 41.4 | 51.5 | 23 | 27.4 | 29.3 | 52.3 | 40.3 | – | 34 | 51.6 | – | – |
| CC(=O)[C@@H]1C/C(=C\OCc2ccccc2)O[C@H]1C | > 100 | > 100 | > 100 | > 100 | > 100 | – | > 100 | > 100 | – | > 100 | > 100 | > 100 | > 100 | > 100 | > 100 | > 100 | > 100 | – | – | – |
| CC(=O)O/C=C1/C[C@H]2[C@@H]3CCC4CC(C(C)=O)CC[C@]4(C)[C@H]3CC[C@]2(C)C1=O (stereo partly drawn) | > 100 | – | > 100 | – | > 100 | > 100 | > 100 | > 100 | – | – | > 100 | > 100 | > 100 | > 100 | > 100 | – | 97.3 | > 100 | > 100 | > 100 |
| N#Cc1c(=O)c2ccccc2n2c1[nH]c1ccccc12 | > 100 | 70.4 | > 100 | > 100 | – | > 100 | > 100 | – | > 100 | > 100 | > 100 | > 100 | > 100 | > 100 | – | 79.7 | > 100 | > 100 | – | > 100 |
| O=C(O)C1CCCCC1C(=O)Nn1cnnc1 (stereo not drawn) | > 100 | > 100 | > 100 | > 100 | > 100 | > 100 | > 100 | – | – | > 100 | > 100 | > 100 | > 100 | > 100 | > 100 | – | > 100 | > 100 | > 100 | > 100 |
| CCC(C(=O)C(=O)C(CC)P1(=O)OC(C)(C)CN1C(C)(C)C)P1(=O)OC(C)(C)CN1C(C)(C)C (stereo not drawn) | > 100 | > 100 | > 100 | > 100 | > 100 | > 100 | > 100 | – | > 100 | > 100 | > 100 | > 100 | > 100 | > 100 | > 100 | > 100 | > 100 | > 100 | – | > 100 |
| COC(=O)C1=CSC2(S1)C(C(=O)OC)=CSc1c2ssc1=O (stereo not drawn) | 5.23 | 8.35 | 4.13 | 6.65 | 29.7 | 6.03 | > 23 | 6.18 | 12.3 | 8.47 | 8.89 | 2.96 | 3.02 | 3.71 | 3.14 | – | 3.55 | 2.89 | 4.92 | 8.82 |
| N#CC(C#N)=C/C=C(\Sc1c(Cl)c(Cl)nc(Cl)c1Cl)c1ccc(Cl)cc1 | 49.7 | 36.1 | 60 | 38.9 | 58.9 | > 100 | > 100 | 46.6 | 63.7 | > 100 | 54.1 | 27.5 | 33.3 | > 100 | 56.5 | > 100 | 27.3 | > 100 | – | – |
